{
  "source": "patent US8173705B2",
  "about": "“Agent for alleviating wrinkles” (Shiseido Company Ltd., priority 2007, dated 2012)",
  "system": "SCCA 1 (Serpin b3) expression",
  "test": "Effect of suppressing SCCA 1 expression (RT-PCR in human normal keratinocytes)",
  "type": "cell-based",
  "details": "incubated 24 hours, G3PDH internal standard, compared with control sample",
  "description": "Human normal keratinocytes (manufactured by KURABO INDUSTRIES LTD.) were incubated with culture medium, Epilife (manufactured by KURABO INDUSTRIES LTD.) For medium replacement, the medium was subcultured for three times a week. The human normal keratinocytes were seeded on 3.5 cm dishes. In the phase of 60 to 70% confluent, 200 μM and 1 mM of N-benzenesulfonyl-gamma-aminobutyric were respectively added to the dishes, which were incubated for 24 hours. Then RNAs were extracted with use of Isogen, and SCCA 1 (Serpin b3) expression levels were measured by RT-PCR. Additionally, as a control sample, the same test except no addition of gamma-aminobutyric acid derivatives was conducted. G3PDH was used as internal standard. The primers used for PCR were as follows.",
  "data": [
    {"smiles": "O=C(O)CCCNS(=O)(=O)c1ccccc1", "note": "[N-benzenesulfonyl-gamma-aminobutyric acid]", "values": [
      {"measurement": "Serpin b3 (SCCA 1) expression level", "setting": "200 μM added", "result": "significantly decreased"},
      {"measurement": "Serpin b3 (SCCA 1) expression level", "setting": "1 mM added", "result": "significantly decreased"}
    ]}
  ]
}
